Molecular target: GABA-A receptor
Test: 35S-TBPS binding assay (GABAA receptor binding ability assay)
Parameters: species or system Sprague-Dawley rat
Conditions: rat cerebral cortex cell membrane, 5 μM GABA, 2 nM 35S-TBPS; read-out: IC50 on inhibiting the TBPS binding activity, 35S-TBPS bindng assay
Description: 1. The cerebral cortex of male Sprague-Dawley rat was isolated.
2. A pre-chilled 0.32 M sucrose solution (one tablet of protease inhibitor was added per 100 mL) was added to the cerebral cortex (the volume of sucrose solution was 10 times the volume of the cerebral cortex). The mixture was crushed with a 50 mL glass tissue homogenizer in batches and mixed well.
3. The mixture was centrifuged at 1,500 g, 4° C. for 10 minutes, and the supernatant was collected.
4. The mixture was centrifuged at 20,000 g, 4° C. for 30 minutes, and the supernatant was discarded.
5. The precipitate was resuspended with the pre-chilled phosphate buffer saline (PBS) (one tablet of protease inhibitor was added per 100 mL). An average of 4 mL of PBS was added per rat, and the mixture was mixed well with a glass tissue homogenizer.
6. The mixture was centrifuged at 10,000 g, 4° C. for 10 minutes, and the supernatant was discarded.
7. Steps 5 and 6 were repeated three times.
8. Finally, the precipitate was resuspended with 4 volumes of PBS. The resulting solution was dispensed, frozen in liquid nitrogen, and stored at −80° C.
9. The protein concentration was measured by the bicinchoninic acid (BCA) method.
1. 230 μL of PBS was added to each well of a well plate with 1.1 mL volume.
2. 60 μL of the cerebral cortex cell membrane (5 μg/μL) solution was added to each well, and the mixture was mixed well.
3. The test compound (3 μL per well) was added, and the plate was incubated at 25° C. for 5 minutes. The DMSO concentration was 1%. The initial compound concentration was […], and a
3-fold dilution in gradient was carried out to obtain a total of 8 gradients and 2 replicates. 1% DMSO was used as a negative control, and 10 μM P026-2 was used as a positive control.
4. GABA was added at a final concentration of 5 μM, and incubated at 25° C. for 5 minutes. 1 mM GABA solution was formulated, and 1.5 μL of the solution was added to each well.
5. 35S-TBPS was added at a final concentration of 2 nM. The concentration of isotope mother solution was 9.7 μM. After dilution with PBS for 100 times, 6 μL of the diluted isotope solution was added to each well.
6. The plate was incubated at 4° C. for 20 hours.
7. The FilterMate GF/C plate was pre-treated with 0.5% PEI, and incubated at 4° C. for 1 hour.
8. The FilterMate GF/C plate was washed with Universal Harvester twice, 50 mL PBS each time.
9. The reaction solution was transferred to the GF/C plate, and each well was washed 4 times with 900 μL of PBS.
10. The washed GF/C plate was placed at 55° C. and dried for 10 minutes.
11. 40 μL of scintillation solution was added to each well, and the CPM value was read with TopCount.
In the experiment, the CPM (counts per minute) value was read with TopCount. According to the readings of the High control (DMSO) and the Low control (10 μM of the positive compound) experimental groups, the % inhibition was calculated based on the following formula: % Inhibition=100×(CPMHigh control−CPMsample)/(CPMHigh control−CPMLow control)
The IC50 of the compound was calculated according to the following 4-parameter nonlinear logic formula: Y=Bottom+(Top−Bottom)/(1+10^((Log IC50−X)*HillSlope)),
wherein: • X represents the log of compound concentration, • Y represents the % Inhibition.
The effect of the compound of the present invention on the TBPS binding activity was determined by the above test, and the measured IC50 values are shown in Table 5.

| SMILES | IC50 [nM] |
| --- | --- |
| C[C@@]1(O)CC[C@H]2[C@H](CC[C@@H]3[C@@H]2CC[C@@]2(C)[C@H]3[C@@H]3C[C@@H]3[C@@H]2C(=O)Cn2ccc(C(F)(F)F)n2)C1 [Example 4, 1-((2R,4aS,4bR,6aS,7S,7aS,8aR,8bR,8cR,10aR)-2-Hydroxy-2,6a-dimethyloctadecahydrocyclopropa[4,5]cyclopenta[1,2-a]phenanthren-7-yl)-2-(3-(trifluoromethyl)-1H-pyrazol-1-yl)ethan-1-one] | 3.1 |
| C[C@@]1(O)CC[C@H]2[C@H](CC[C@@H]3[C@@H]2CC[C@@]2(C)[C@H]3[C@@H]3C[C@@H]3[C@@H]2C(=O)Cn2nccn2)C1 [Example 5, 1-((2R,4aS,4bR,6aS,7S,7aS,8aR,8bR,8cR,10aR)-2-Hydroxy-2,6a-dimethyloctadecahydrocyclopropa[4,5]cyclopenta[1,2-a]phenanthren-7-yl)-2-(2H-1,2,3-triazol-2-yl)ethan-1-one] | 14.7 |
| C[C@@]1(O)CC[C@H]2[C@H](CC[C@@H]3[C@@H]2CC[C@@]2(C)[C@H]3[C@@H]3C[C@@H]3[C@@H]2C(=O)Cn2ncnn2)C1 [Example 7, 1-((2R,4aS,4bR,6aS,7S,7aS,8aR,8bR,8cR,10aR)-2-Hydroxy-2,6a-dimethyloctadecahydrocyclopropa[4,5]cyclopenta[1,2-a]phenanthren-7-yl)-2-(2H-tetrazol-2-yl)ethan-1-one] | 21.3 |
| C[C@@]1(O)CC[C@H]2[C@H](CC[C@@H]3[C@@H]2CC[C@@]2(C)[C@H]3[C@@H]3C[C@@H]3[C@@H]2C(=O)Cn2cc(Cl)cn2)C1 [Example 14, 2-(4-Chloro-1H-pyrazol-1-yl)-1-((2R,4aS,4bR,6aS,7S,7aS,8aR,8bR,8cR,10aR)-2-hydroxy-2,6a-dimethyloctadecahydrocyclopropa[4,5]cyclopenta[1,2-a]phenanthren-7-yl)ethan-1-one] | 6.4 |
| C[C@@]1(O)CC[C@H]2[C@H](CC[C@@H]3[C@@H]2CC[C@@]2(C)[C@H]3[C@@H]3C[C@@H]3[C@@H]2C(=O)Cn2cc(C#N)c(C3CC3)n2)C1 [Example 24, 3-Cyclopropyl-1-(2-((2R,4aS,4bR,6aS,7S,7aS,8aR,8bR,8cR,10aR)-2-hydroxy-2,6a-dimethyloctadecahydrocyclopropa[4,5]cyclopenta[1,2-a]phenanthren-7-yl)-2-oxoethyl)-1H-pyrazole-4-carbonitrile] | 18.3 |
| C[C@@]1(O)CC[C@H]2[C@H](CC[C@@H]3[C@@H]2CC[C@@]2(C)[C@H]3[C@@H]3C[C@@H]3[C@@H]2C(=O)Cn2ncc(C#N)c2C2CC2)C1 [Example 25, 5-Cyclopropyl-1-(2-((2R,4aS,4bR,6aS,7S,7aS,8aR,8bR,8cR,10aR)-2-hydroxy-2,6a-dimethyloctadecahydrocyclopropa[4,5]cyclopenta[1,2-a]phenanthren-7-yl)-2-oxoethyl)-1H-pyrazole-4-carbonitrile] | 28.1 |
| Cc1nn(CC(=O)[C@H]2[C@H]3C[C@H]3[C@H]3[C@@H]4CC[C@@H]5C[C@](C)(O)CC[C@@H]5[C@H]4CC[C@@]32C)cc1C#N [Example 28, 1-(2-((2R,4aS,4bR,6aS,7S,7aS,8aR,8bR,8cR,10aR)-2-Hydroxy-2,6a-dimethyloctadecahydrocyclopropa[4,5]cyclopenta[1,2-a]phenanthren-7-yl)-2-oxoethyl)-3-methyl-1H-pyrazole-4-carbonitrile] | 15.4 |
| Cc1c(C#N)cnn1CC(=O)[C@H]1[C@H]2C[C@H]2[C@H]2[C@@H]3CC[C@@H]4C[C@](C)(O)CC[C@@H]4[C@H]3CC[C@@]21C [Example 29, 1-(2-((2R,4aS,4bR,6aS,7S,7aS,8aR,8bR,8cR,10aR)-2-Hydroxy-2,6a-dimethyloctadecahydrocyclopropa[4,5]cyclopenta[1,2-a]phenanthren-7-yl)-2-oxoethyl)-5-methyl-1H-pyrazole-4-carbonitrile] | 15.4 |
| C[C@@]1(O)CC[C@H]2[C@H](CC[C@@H]3[C@@H]2CC[C@@]2(C)[C@H]3[C@@H]3C[C@@H]3[C@@H]2C(=O)Cn2cc(F)cn2)C1 [Example 30, 2-(4-Fluoro-1H-pyrazol-1-yl)-1-((2R,4aS,4bR,6aS,7S,7aS,8aR,8bR,8cR,10aR)-2-hydroxy-2,6a-dimethyloctadecahydrocyclopropa[4,5]cyclopenta[1,2-a]phenanthren-7-yl)ethan-1-one] | 28.7 |
| CCOC(=O)c1cnn(CC(=O)[C@H]2[C@H]3C[C@H]3[C@H]3[C@@H]4CC[C@@H]5C[C@](C)(O)CC[C@@H]5[C@H]4CC[C@@]32C)c1 [Example 35, Ethyl 1-(2-((2R,4aS,4bR,6aS,7S,7aS,8aR,8bR,8cR,10aR)-2-hydroxy-2,6a-dimethyloctadecahydrocyclopropa[4,5]cyclopenta[1,2-a]phenanthren-7-yl)-2-oxoethyl)-1H-pyrazole-4-carboxylate] | 5 |
| C[C@@H]1C[C@H](C(=O)Cn2cc(C(F)(F)F)cn2)[C@@]2(C)CC[C@H]3[C@@H](CC[C@@H]4C[C@](C)(O)CC[C@@H]43)[C@H]12 [Example 39, 1-((3R,5R,8R,9R,10S,13S,14S,15R,17S)-3-Hydroxy-3,13,15-trimethylhexadecahydro-1H-cyclopenta[a]phenanthren-17-yl)-2-(4-(trifluoromethyl)-11H-pyrazol-1-yl)ethan-1-one] | 6.2 |
| C[C@@H]1C[C@H](C(=O)Cn2ccnn2)[C@@]2(C)CC[C@H]3[C@@H](CC[C@@H]4C[C@](C)(O)CC[C@@H]43)[C@H]12 [Example 42, 1-((3R,5R,8R,9R,10S,13S,14S,15R,17S)-3-Hydroxy-3,13,15-trimethylhexadecahydro-1H-cyclopenta[a]phenanthren-17-yl)-2-(1H-1,2,3-triazol-1-yl)ethan-1-one] | 24.6 |
| Cc1nnn(CC(=O)[C@H]2C[C@@H](C)[C@H]3[C@@H]4CC[C@@H]5C[C@](C)(O)CC[C@@H]5[C@H]4CC[C@@]32C)n1 [Example 43, 1-((3R,5R,8R,9R,10S,13S,14S,15R,17S)-3-Hydroxy-3,13,15-trimethylhexadecahydro-1H-cyclopenta[a]phenanthren-17-yl)-2-(5-methyl-2H-tetrazol-2-yl)ethan-1-one] | 5.4 |
| C[C@@H]1C[C@H](C(=O)Cn2ncnn2)[C@@]2(C)CC[C@H]3[C@@H](CC[C@@H]4C[C@](C)(O)CC[C@@H]43)[C@H]12 [Example 44, 1-((3R,5R,8R,9R,10S,13S,14S,15R,17S)-3-Hydroxy-3,13,15-trimethylhexadecahydro-1H-cyclopenta[a]phenanthren-17-yl)-2-(2H-tetrazol-2-yl)ethan-1-one] | 6.1 |
| C[C@@H]1C[C@H](C(=O)Cn2cc(C#N)c(C3CC3)n2)[C@@]2(C)CC[C@H]3[C@@H](CC[C@@H]4C[C@](C)(O)CC[C@@H]43)[C@H]12 [Example 47, 3-Cyclopropyl-1-(2-((3R,5R,8R,9R,10S,13S,14S,15R,17S)-3-hydroxy-3,13,15-trimethylhexadecahydro-1H-cyclopenta[a]phenanthren-17-yl)-2-oxoethyl)-1H-pyrazole-4-carbonitrile] | 7.6 |
| C[C@@H]1C[C@H](C(=O)Cn2cc(Cl)cn2)[C@@]2(C)CC[C@H]3[C@@H](CC[C@@H]4C[C@](C)(O)CC[C@@H]43)[C@H]12 [Example 68, 2-(4-Chloro-1H-pyrazol-1-yl)-1-((3R,5R,8R,9R,10S,13S,14S,15R,17S)-3-hydroxy-3,13,15-trimethylhexadecahydro-1H-cyclopenta[a]phenanthren-17-yl)ethan-1-one] | 9.6 |
